This is an account of results in patent US9512117B2 (priority 2010, dated 2016).

The nature of data set [1]: logP by HPLC on reversed-phase columns (C 18), EEC directive 79/831 Annex V.A8. The data set is classed as physicochemical. The following applies: LC-MS; for Log P [a] / chromatographic logP: acidic range, pH 2.7, 0.1% aqueous formic acid and acetonitrile; for Log P [b]: neutral range, pH 7.8, 0.001 molar aqueous ammonium hydrogencarbonate and acetonitrile; for chromatographic logP: reversed-phase HPLC column (C18), read-out: Log P [a]. The procedure: The logP values were measured according to EEC directive 79/831 Annex V.A8 by HPLC (High Performance Liquid Chromatography) on reversed-phase columns (C 18), using the methods below:
^[a] The LC-MS determination in the acidic range is effected at pH 2.7 with 0.1% aqueous formic acid and acetonitrile (contains 0.1% formic acid) as eluents; linear gradient from 10% acetonitrile to 95% acetonitrile.
^[b] The LC-MS determination in the neutral range is effected at pH 7.8 using 0.001 molar aqueous ammonium hydrogencarbonate solution and acetonitrile as eluents; linear gradient from 10% acetonitrile to 95% acetonitrile.
The calibration is effected with unbranched alkan-2-ones (having 3 to 16 carbon atoms) with known logP values (logP values determined on the basis of the retention times by linear interpolation between two successive alkanones).

Another data set relates to Phytophthora infestans. The data set is classed as in vivo. The following applies: young tomato plants, protective spray, 100 ppm active ingredient, evaluation 7 days after inoculation; 0% = control, 100% = no infection.
The next data set deals with Plasmopara viticola. Briefly: Plasmopara test (grapevine) / protective. The data set is classed as in vivo. The settings on record: young grapevine plants, protective spray, 10 ppm active ingredient, evaluation 6 days after inoculation; 0% = control, 100% = no infection. As for the experimental part:
Plasmopara Test (Grapevine)/Protective
• Solvent: 24.5 parts by weight of acetone • 24.5 parts by weight of dimethylacetamide • Emulsifier: 1 part by weight of alkylaryl polyglycol ether
To produce a suitable active ingredient formulation, 1 part by weight of active ingredient is mixed with the stated amounts of solvent and emulsifier, and the concentrate is diluted with water to the desired concentration.
To test for protective efficacy, young plants are sprayed with the active ingredient formulation at the stated application rate. After the spray coating has dried on, the plants are inoculated with an aqueous spore suspension of Plasmopara viticola and then remain in an incubation cabin at approx. 20° C. and 100% relative air humidity for 1 day. Subsequently, the plants are placed in a greenhouse at approx. 21° C. and approx. 90% air humidity for 4 days. The plants are then moistened and placed in an incubation cabin for 1 day.
Evaluation follows 6 days after the inoculation. 0% means an efficacy which corresponds to that of the control, whereas an efficacy of 100% means that no infection is observed.
In this test, the following inventive compounds show, at an active ingredient concentration of 10 ppm, an efficacy of 70% or more: […]

`C=CCOc1cccc(Cl)c1C1CC(c2csc(C3CCN(C(=O)Cn4nc(C(F)(F)F)cc4C)CC3)n2)=NO1` (racemic) [Ex. 50]: in data set [1], the “Log P [a]” value is 3.94[a]; and the “Log P [b]” value was 3.83[b]. For the same molecule, the Eff. % with Phytophthora infestans came to 70%. The Eff. % in the data set on Plasmopara viticola is 100%.
As to `C=CCOc1cccc(F)c1C1CC(c2csc(C3CCN(C(=O)Cn4nc(C(F)(F)F)cc4C)CC3)n2)=NO1` (racemic) [Ex. 51], in data set [1], the “Log P [a]” value was 3.7[a]; and the “Log P [b]” value was 3.61[b]. For the same molecule, the Eff. % with Phytophthora infestans amounted to 85%. Further, the Eff. % with Plasmopara viticola turned out to be 100%.
Consider `C=CCOc1c(F)cccc1C1CC(c2csc(C3CCN(C(=O)Cn4nc(C(F)(F)F)cc4C)CC3)n2)=NO1` (racemic) [Ex. 52], for which the “Log P [a]” value in data set [1] is 3.97[a];. The “Log P [b]” value in data set [1] was 3.84[b]. The Eff. % is 97% with Phytophthora infestans and 98% in the data set with Plasmopara viticola.
Take `Cc1cc(C(F)(F)F)nn1CC(=O)N1CCC(c2nc(C3=NOC(c4c(F)cccc4C=O)C3)cs2)CC1` (racemic) [Ex. 53]: the “Log P [a]” value in data set [1] was 3.03[a];. Moreover, the “Log P [b]” value in data set [1] was 2.95[b]. For the same molecule, the values for the Eff. % with Phytophthora infestans and in the data set with Plasmopara viticola were 98% and 100%, respectively.
Consider `Cc1cc(C(F)(F)F)nn1CC(=O)N1CCC(c2nc(C3=NOC(c4cccc(F)c4OC(=O)C4CC4)C3)cs2)CC1` (racemic) [Ex. 54], for which, in data set [1], the “Log P [a]” value was 3.62[a]; and the “Log P [b]” value was 3.5[b]. In the data set with Phytophthora infestans, this molecule registered an Eff. % of 94%. Besides, the Eff. % in the data set with Plasmopara viticola was found to be 91%.
In the same order, the values of `COCCOc1ccccc1C1CC(c2csc(C3CCN(C(=O)Cn4nc(C(F)(F)F)cc4C)CC3)n2)=NO1` (racemic) [Ex. 55] are 3.27[a];, 3.25[b], 92% and 93%.
As to `Cc1cc(C(F)(F)F)nn1CC(=O)N1CCC(c2nc(C3=NOC(c4ccccc4OC(=O)C4CC4)C3)cs2)CC1` (racemic) [Ex. 56], in data set [1], the “Log P [a]” value is 3.52[a]; and the “Log P [b]” value was 3.41[b]. Besides, in the data set on Phytophthora infestans, the Eff. % is given as 89%. In the data set on Plasmopara viticola, this molecule yielded an Eff. % of 98%.
With `Cc1cc(C(F)(F)F)nn1CC(=O)N1CCC(c2nc(C3=NOC(c4cccc(C=O)c4)C3)cs2)CC1` (stereo not shown) [Ex. 1], the “Log P [a]” value in data set [1] is 2.83[a]. For the same molecule, the Eff. % in the data set with Phytophthora infestans was 100%; in the data set on Plasmopara viticola it was 98%.
For `Cc1ccc(Cl)cc1NC(=O)N1CCC(c2nc(C3=NOC(c4cccc(C=O)c4)C3)cs2)CC1` (stereo not shown) [Ex. 2] the same measures were 3.05[a], 100% and 100%.
Turning to `Cc1ccc(Cl)cc1NC(=O)N1CCC(c2nc(C3=NOC(c4ccccc4C=O)C3)cs2)CC1` (stereo not shown) [Ex. 3, N-(5-Chloro-2-methylphenyl)-4-{4-[5-(2-formylphenyl)-4,5-dihydro-1,2-oxazol-3-yl]-1,3-thiazol-2-yl}piperidine-1-carboxamide], in data set [1], the chromatographic logP was 3.35. Further, the Eff. % with Phytophthora infestans and in the data set on Plasmopara viticola was 100% throughout.
With `CS(=O)(=O)Nc1ccccc1C1CC(c2csc(C3CCN(C(=O)Cc4cc(C(F)F)ccc4C(F)F)CC3)n2)=NO1` (stereo not shown) [Ex. 4, N-(2-{3-[2-(1-{[2,5-Bis(difluoromethyl)phenyl]acetyl}piperidin-4-yl)-1,3-thiazol-4-yl]-4,5-dihydro-1,2-oxazol-5-yl}phenyl)methanesulphonamide], the chromatographic logP in data set [1] is 2.81. In addition, the Eff. % in the data set on Phytophthora infestans and with Plasmopara viticola was 95% in each case.
Take `CS(=O)(=O)Nc1ccccc1C1CC(c2csc(C3CCN(C(=O)Nc4cc(C(F)F)ccc4C(F)F)CC3)n2)=NO1` (stereo not shown) [Ex. 6, N-[2,5-Bis(difluoromethyl)phenyl]-4-[4-(5-{2-[(methylsulphonyl)amino]phenyl}-4,5-dihydro-1,2-oxazol-3-yl)-1,3-thiazol-2-yl]piperidine-1-carboxamide]: the chromatographic logP in data set [1] is 2.72. Also, the Eff. % in the data set with Phytophthora infestans is listed as 95%; with Plasmopara viticola, 98%.
In the same order, the values of `Cc1cc(C(F)(F)F)nn1CC(=O)N1CCC(c2nc(C3=NOC(c4ccccc4C=O)C3)cs2)CC1` (stereo not shown) [Ex. 7, 2-{3-[2-(1-{[5-Methyl-3-(trifluoromethyl)-1H-pyrazol-1-yl]acetyl}piperidin-4-yl)-1,3-thiazol-4-yl]-4,5-dihydro-1,2-oxazol-5-yl}benzaldehyde] are 3.12, 100% and 100%.
With `C#CCOc1cccc(Cl)c1C1CC(c2csc(C3CCN(C(=O)Cn4nc(C(F)(F)F)cc4C)CC3)n2)=NO1` (stereo not shown) [Ex. 11], in data set [1], the “Log P [a]” value was 3.62[a]; and the “Log P [b]” value was 3.53[b]. The same molecule showed an Eff. % in the data set with Phytophthora infestans of 85%. In the data set on Plasmopara viticola, this molecule had an Eff. % of 100%.
Turning to `C#CCOc1cccc(F)c1C1CC(c2csc(C3CCN(C(=O)Cn4nc(C(F)(F)F)cc4C)CC3)n2)=NO1` (stereo not shown) [Ex. 12], in data set [1], the “Log P [a]” value was 3.35[a]; and the “Log P [b]” value is 3.27[b]. This molecule displayed an Eff. % in the data set on Phytophthora infestans of 75%. The molecule further gave an Eff. % with Plasmopara viticola of 100%.
On to `C#CCOc1ccccc1C1CC(c2csc(C3CCN(C(=O)Cn4nc(C(F)(F)F)cc4C)CC3)n2)=NO1` (stereo not shown) [Ex. 13], for which the “Log P [a]” value in data set [1] was 3.47[a];. Also, the “Log P [b]” value in data set [1] was 3.37[b]. In addition, the results for the Eff. % with Phytophthora infestans and in the data set on Plasmopara viticola were 89% and 100%, respectively.
In the same order, the values of `C=CCOc1ccccc1C1CC(c2csc(C3CCN(C(=O)Cn4nc(C)cc4C(F)F)CC3)n2)=NO1` (stereo not shown) [Ex. 18] are 3.42[a];, 3.33[b], 100% and 95%.
In the same order, the values of `C=CCOc1cccc(F)c1C1CC(c2csc(C3CCN(C(=O)Nc4cc(C)ccc4C)CC3)n2)=NO1` (stereo not shown) [Ex. 25] are 3.64[a];, 3.62[b], 100% and 100%.
Consider `C#CCOc1ccccc1C1CC(c2csc(C3CCN(C(=O)Cn4nc(C)cc4C(F)F)CC3)n2)=NO1` (stereo not shown) [Ex. 29], for which, in data set [1], the “Log P [a]” value is 3.03[a]. In addition, the Eff. % in the data set with Phytophthora infestans and in the data set on Plasmopara viticola was 100% each time.
On to `C=CCOc1ccccc1C1CC(c2csc(C3CCN(C(=O)Cn4nc(C(F)(F)F)cc4C)CC3)n2)=NO1` (stereo not shown) [Ex. 30], for which, in data set [1], the “Log P [a]” value was 3.86[a]; and the “Log P [b]” value is 3.73[b]. In the data set with Phytophthora infestans, this molecule came in with an Eff. % of 97%. Besides, the Eff. % in the data set on Plasmopara viticola worked out at 100%.
